# In ChEMBL document CHEMBL1137197, “Discovery of thiadiazoles as a novel structural class of potent and selective PDE7 inhibitors. Part 1: design, synthesis and structure-activity relationship studies” (Bioorg Med Chem Lett, 2004):
# pIC50: −log10 of the molar value.
# Columns and labels:
# [1] = target: 3',5'-cyclic-AMP phosphodiesterase 4D (Homo sapiens, UniProt Q08499); test: Inhibition of human Phosphodiesterase 4D3 expressed in baculovirus infected Sf9 cells
# [2] = target: High affinity 3',5'-cyclic-AMP phosphodiesterase 7A (Homo sapiens, UniProt Q13946); test: Inhibition of human Phosphodiesterase 7A1 expressed in baculovirus infected Sf9 cells
# High affinity 3',5'-cyclic-AMP phosphodiesterase 7A, sequence (Q13946 whole entry): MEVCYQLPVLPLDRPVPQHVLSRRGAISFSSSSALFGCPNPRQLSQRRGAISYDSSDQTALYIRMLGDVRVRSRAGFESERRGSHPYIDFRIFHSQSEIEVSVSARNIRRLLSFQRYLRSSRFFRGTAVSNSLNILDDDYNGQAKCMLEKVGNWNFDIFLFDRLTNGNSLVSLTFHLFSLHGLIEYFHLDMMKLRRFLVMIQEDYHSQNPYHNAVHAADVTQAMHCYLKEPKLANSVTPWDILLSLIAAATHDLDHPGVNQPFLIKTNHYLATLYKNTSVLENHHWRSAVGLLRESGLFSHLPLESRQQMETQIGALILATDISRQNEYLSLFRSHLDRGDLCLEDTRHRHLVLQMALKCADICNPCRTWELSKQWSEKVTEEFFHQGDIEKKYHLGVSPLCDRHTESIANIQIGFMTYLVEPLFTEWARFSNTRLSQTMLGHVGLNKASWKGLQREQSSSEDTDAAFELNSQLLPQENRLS
# [3] = target: cGMP-specific 3',5'-cyclic phosphodiesterase (Homo sapiens, UniProt O76074); test: Inhibition of human Phosphodiesterase 5 purified from MCF-7 cells; assay type: cell-free, MCF7
# [4] = target: cGMP-inhibited 3',5'-cyclic phosphodiesterase 3A (Homo sapiens, UniProt Q14432); test: Inhibition of human Phosphodiesterase 3A3 expressed in baculovirus infected Sf9 cells
# cGMP-inhibited 3',5'-cyclic phosphodiesterase 3A, sequence (Q14432 whole entry): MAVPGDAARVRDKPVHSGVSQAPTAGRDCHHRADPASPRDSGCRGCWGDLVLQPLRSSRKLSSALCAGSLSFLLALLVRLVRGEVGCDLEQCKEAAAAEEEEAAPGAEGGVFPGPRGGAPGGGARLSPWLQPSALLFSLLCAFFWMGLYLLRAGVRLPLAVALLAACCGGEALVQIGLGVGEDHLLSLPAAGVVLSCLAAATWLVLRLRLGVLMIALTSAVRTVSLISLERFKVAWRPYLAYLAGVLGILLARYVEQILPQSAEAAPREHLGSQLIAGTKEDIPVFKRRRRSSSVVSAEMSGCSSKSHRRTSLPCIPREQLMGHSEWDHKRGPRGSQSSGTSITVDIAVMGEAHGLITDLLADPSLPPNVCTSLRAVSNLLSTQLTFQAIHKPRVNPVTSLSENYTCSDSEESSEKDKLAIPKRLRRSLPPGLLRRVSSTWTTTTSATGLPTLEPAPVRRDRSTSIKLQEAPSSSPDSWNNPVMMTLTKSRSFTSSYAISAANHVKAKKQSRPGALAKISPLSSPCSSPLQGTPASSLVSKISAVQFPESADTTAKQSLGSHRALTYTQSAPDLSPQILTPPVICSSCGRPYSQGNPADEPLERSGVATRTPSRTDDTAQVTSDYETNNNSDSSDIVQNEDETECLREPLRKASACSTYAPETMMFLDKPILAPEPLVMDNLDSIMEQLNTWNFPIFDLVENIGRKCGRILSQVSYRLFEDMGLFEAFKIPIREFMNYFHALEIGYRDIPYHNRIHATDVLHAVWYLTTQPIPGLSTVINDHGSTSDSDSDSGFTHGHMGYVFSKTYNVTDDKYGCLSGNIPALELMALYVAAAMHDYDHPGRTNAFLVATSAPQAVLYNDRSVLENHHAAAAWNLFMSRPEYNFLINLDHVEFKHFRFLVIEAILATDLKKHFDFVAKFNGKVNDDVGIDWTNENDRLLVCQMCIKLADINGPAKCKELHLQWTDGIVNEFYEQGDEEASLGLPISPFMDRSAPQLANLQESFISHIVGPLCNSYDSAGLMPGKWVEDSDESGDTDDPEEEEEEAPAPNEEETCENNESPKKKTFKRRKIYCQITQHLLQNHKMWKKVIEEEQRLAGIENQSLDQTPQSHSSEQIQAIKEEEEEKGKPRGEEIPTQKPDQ
# [5] = target: Phosphodiesterase 1 (Homo sapiens, UniProt P54750+Q01064+Q14123); test: Inhibition of human Phosphodiesterase 1 purified from THP-1 cells; assay type: cell-free
# [6] = Solubility at 7.4 pH; assay type: physicochemical; conditions: pH 7.4
# 3',5'-cyclic-AMP phosphodiesterase 4D, sequence (Q08499 whole entry): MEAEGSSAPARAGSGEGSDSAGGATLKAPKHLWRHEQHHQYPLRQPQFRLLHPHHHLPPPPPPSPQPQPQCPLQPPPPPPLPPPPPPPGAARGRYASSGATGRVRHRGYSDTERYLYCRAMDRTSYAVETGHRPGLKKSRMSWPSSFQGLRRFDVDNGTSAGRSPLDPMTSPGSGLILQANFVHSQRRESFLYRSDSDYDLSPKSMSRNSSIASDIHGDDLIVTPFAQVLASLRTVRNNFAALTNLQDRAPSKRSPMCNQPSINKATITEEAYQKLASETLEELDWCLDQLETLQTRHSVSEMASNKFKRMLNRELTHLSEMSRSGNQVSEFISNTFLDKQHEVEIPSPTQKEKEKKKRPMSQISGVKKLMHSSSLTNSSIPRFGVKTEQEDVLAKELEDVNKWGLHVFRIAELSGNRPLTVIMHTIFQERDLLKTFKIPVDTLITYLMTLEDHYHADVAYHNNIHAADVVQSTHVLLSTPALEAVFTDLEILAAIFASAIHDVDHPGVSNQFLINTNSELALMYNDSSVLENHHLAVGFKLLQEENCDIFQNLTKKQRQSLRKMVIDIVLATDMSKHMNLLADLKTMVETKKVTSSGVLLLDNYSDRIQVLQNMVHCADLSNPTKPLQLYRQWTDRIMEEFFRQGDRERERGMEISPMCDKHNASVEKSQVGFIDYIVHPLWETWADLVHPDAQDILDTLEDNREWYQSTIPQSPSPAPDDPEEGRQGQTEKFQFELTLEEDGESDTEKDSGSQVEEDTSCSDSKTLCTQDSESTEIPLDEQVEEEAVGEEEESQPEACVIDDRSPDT
smiles,measurement,setting,value
Cn1nc(-c2ccc(Cl)cc2)s/c1=N\C1CC2CCC1C2 (stereo unspecified),pIC50,[1],< 4.00
Cn1nc(-c2ccc(Cl)cc2)s/c1=N\C1CN2CCC1C2 (stereo unspecified),pIC50,[1],4.10
same,pIC50,[2],5.23
Cn1nc(-c2ccc(C(N)=O)c(N)c2)s/c1=N\C1CCCCC1,pIC50,[1],4.59
same,pIC50,[2],7.10
Cn1nc(-c2ccc(C(N)=O)c(O)c2)s/c1=N\C1CCCCC1,pIC50,[1],4.71
same,pIC50,[2],6.92
CCC/N=c1\sc(-c2ccc(Cl)cc2)nn1C,pIC50,[1],4.59
same,pIC50,[2],5.11
Cc1nc(N)c2ccc(-c3nn(C)/c(=N/C4CCCCC4)s3)cc2n1,pIC50,[1],4.03
same,pIC50,[2],8.41
CCNS(=O)(=O)c1cc(-c2nn(C)/c(=N/C3CCCCC3)s2)ccc1Cl,pIC50,[1],5.23
same,pIC50,[2],7.70
Cn1nc(-c2ccc(Cl)cc2)s/c1=N\C1CCC(N)CC1 (stereo unspecified),pIC50,[1],< 4.00
same,pIC50,[2],5.23
CC(C)/N=c1\sc(-c2ccc(Cl)cc2)nn1C,pIC50,[1],4.77
same,pIC50,[2],5.41
Cn1nc(-c2ccc(Cl)cc2)s/c1=N\C1CCCCCCC1,pIC50,[1],< 4.00
same,pIC50,[2],5.78
Cn1nc(-c2ccc(Cl)cc2)s/c1=N\c1ccc(O)c(C(=O)O)c1,pIC50,[3],5.40
same,pIC50,[4],5.25
same,pIC50,[1],5.15
same,pIC50,[2],6.82
same,IC50,[5],5.23 µM
Cn1nc(-c2ccc(Cl)cc2)s/c1=N\c1ccc(F)cc1,pIC50,[3],4.00
same,pIC50,[4],< 4.00
same,pIC50,[1],< 4.00
same,pIC50,[2],5.66
same,IC50,[5],85.68 µM
Cn1nc(-c2ccc(Cl)cc2)s/c1=N\c1cccc(O)c1,pIC50,[3],4.96
same,pIC50,[4],5.21
same,pIC50,[1],< 4.00
same,pIC50,[2],5.74
same,IC50,[5],9.81 µM
Cn1nc(-c2ccc(Cl)cc2)s/c1=N\C1CCC1,pIC50,[1],5.20
same,pIC50,[2],5.32
Cn1nc(-c2ccc(Cl)cc2)s/c1=N\c1ccc(C(=O)O)cc1,pIC50,[3],4.39
same,pIC50,[4],4.51
same,pIC50,[1],< 4.00
same,pIC50,[2],5.34
same,IC50,[5],28.93 µM
Cn1nc(-c2ccc3c(N)ncnc3c2)s/c1=N\C1CCCCC1,pIC50,[1],< 4.00
same,pIC50,[2],7.70
COC(=O)c1ccc(-c2nn(C)/c(=N/C3CCCCC3)s2)cc1,pIC50,[1],4.02
Cn1nc(-c2ccc(Cl)cc2)s/c1=N\c1cccc(F)c1,pIC50,[3],< 4.00
same,pIC50,[4],< 4.00
same,pIC50,[1],< 4.00
same,pIC50,[2],5.18
same,IC50,[5],> 101 µM
Cn1nc(-c2ccc(Cl)cc2)s/c1=N\c1cccc(C#N)c1,pIC50,[3],< 4.00
same,pIC50,[4],4.33
same,pIC50,[1],4.44
same,pIC50,[2],5.24
same,IC50,[5],> 101 µM
Cn1nc(-c2ccc(Cl)cc2)s/c1=N\C(C)(C)CO,pIC50,[1],4.43
same,pIC50,[2],5.72
Cn1nc(-c2ccc(S(N)(=O)=O)cc2)s/c1=N\C1CCCCC1,pIC50,[1],4.96
same,pIC50,[2],6.82
Cn1nc(-c2ccc(Cl)cc2)s/c1=N\C1(CO)CCCC1,pIC50,[1],< 4.00
same,pIC50,[2],5.40
Cn1nc(-c2ccc(C(N)=O)cc2)s/c1=N\C1CCCCC1,pIC50,[1],4.82
same,pIC50,[2],7.22
Cn1nc(-c2ccc(S(C)(=O)=O)cc2)s/c1=N\C1CCCCC1,pIC50,[1],4.60
same,pIC50,[2],6.89
CC(=O)Nc1ccc(-c2nn(C)/c(=N/C3CCCCC3)s2)cc1,pIC50,[1],4.47
Cn1nc(-c2ccc(Cl)cc2)s/c1=N\C1CCCCC1,pIC50,[1],4.24
same,pIC50,[2],5.82
Cn1nc(-c2ccc(Cl)cc2)s/c1=N\c1cccc(CC(=O)O)c1,pIC50,[3],4.70
same,pIC50,[4],5.07
same,pIC50,[1],4.64
same,pIC50,[2],5.67
same,IC50,[5],40.34 µM
Cn1nc(-c2ccc(Cl)cc2)s/c1=N\c1ccc(F)c(C(=O)O)c1,pIC50,[3],4.75
same,pIC50,[4],4.77
same,pIC50,[1],4.40
same,pIC50,[2],6.80
same,IC50,[5],21.58 µM
CCC(CC)/N=c1\sc(-c2ccc(Cl)cc2)nn1C,pIC50,[1],< 4.00
same,pIC50,[2],5.25
Cn1nc(-c2ccccc2Cl)s/c1=N\C1CCCCC1,pIC50,[1],4.40
Cn1nc(-c2ccc(Cl)cc2)s/c1=N\c1cccc(C(=O)O)c1,pIC50,[3],5.14
same,pIC50,[4],5.13
same,pIC50,[1],4.67
same,pIC50,[2],6.85
same,IC50,[5],16.38 µM
Cn1nc(-c2ccc(N)cc2)s/c1=N\C1CCCCC1,pIC50,[1],4.59
same,pIC50,[2],6.25
Cn1nc(-c2ccc(Cl)cc2)s/c1=N\c1ccccc1,pIC50,[1],4.42
same,pIC50,[2],5.53
Cn1nc(-c2cccc(C(=O)O)c2)s/c1=N\C1CCCCC1,pIC50,[1],4.65
COc1cc(-c2nn(C)/c(=N/C3CCCCC3)s2)ccc1C(N)=O,pIC50,[1],< 4.00
same,pIC50,[2],6.33
Cc1cc(-c2nn(C)/c(=N/C3CCCCC3)s2)ccc1C(N)=O,pIC50,[1],4.35
same,pIC50,[2],6.03
COC(=O)c1cccc(-c2nn(C)/c(=N/C3CCCCC3)s2)c1,pIC50,[1],4.72
same,pIC50,[2],6.85
Cn1nc(-c2cccc(C(N)=O)c2)s/c1=N\C1CCCCC1,pIC50,[1],4.72
same,pIC50,[2],7.05
Cn1nc(-c2ccccc2O)s/c1=N\C1CCCCC1,pIC50,[1],4.15
same,pIC50,[2],5.19
COC(=O)c1ccccc1-c1nn(C)/c(=N/C2CCCCC2)s1,pIC50,[1],4.52
same,pIC50,[2],5.12
Cn1nc(-c2ccc(Cl)cc2)s/c1=N\c1c(O)cccc1C(=O)O,pIC50,[3],4.73
same,pIC50,[4],4.31
same,pIC50,[1],4.23
same,pIC50,[2],5.88
same,IC50,[5],28.84 µM
Cn1nc(-c2ccc(Cl)cc2)s/c1=N\c1ccc(O)cc1,pIC50,[3],< 4.00
same,pIC50,[4],4.00
same,pIC50,[1],4.89
same,pIC50,[2],5.77
same,IC50,[5],> 101 µM
Cn1nc(-c2ccc(Cl)cc2)s/c1=N\c1cccc(C(N)=O)c1,pIC50,[3],< 4.00
same,pIC50,[4],5.58
same,pIC50,[1],4.35
same,pIC50,[2],5.79
same,IC50,[5],7.83 µM
Cc1cccc(C(=O)O)c1/N=c1\sc(-c2ccc(Cl)cc2)nn1C,pIC50,[3],4.63
same,pIC50,[4],4.69
same,pIC50,[1],4.69
same,pIC50,[2],5.86
same,IC50,[5],14.06 µM
Cn1nc(-c2ccc(Cl)cc2)s/c1=N\c1ccccc1O,pIC50,[3],< 4.00
same,pIC50,[4],< 4.00
same,pIC50,[1],< 4.00
same,pIC50,[2],5.28
same,IC50,[5],> 101 µM
CN(C)CCNC(=O)c1ccc(-c2nn(C)/c(=N/C3CCCCC3)s2)cc1,pIC50,[1],4.48
same,pIC50,[2],7.22
same,solubility,[6],83 µg/mL
Cn1nc(-c2ccc(Cl)cc2)s/c1=N\c1cccc(-c2noc(O)n2)c1,pIC50,[3],5.12
same,pIC50,[4],5.72
same,pIC50,[1],5.25
same,pIC50,[2],6.36
same,IC50,[5],3.56 µM
Cn1nc(-c2ccc(O)cc2)s/c1=N\C1CCCCC1,pIC50,[1],4.91
CN(C)CCN(C)C(=O)c1ccc(-c2nn(C)/c(=N/C3CCCCC3)s2)cc1,pIC50,[1],< 4.00
same,pIC50,[2],6.33
Cn1nc(-c2ccc(Cl)cc2)s/c1=N\c1cccc(C(=O)O)c1O,pIC50,[3],5.29
same,pIC50,[4],5.01
same,pIC50,[1],4.85
same,pIC50,[2],6.59
same,IC50,[5],9.28 µM
Cn1nc(-c2ccc(Cl)cc2)s/c1=N\C1CCCC1,pIC50,[1],4.09
same,pIC50,[2],5.51
Cn1nc(-c2ccc(C(=O)NCCN3CCOCC3)cc2)s/c1=N\C1CCCCC1,pIC50,[1],5.06
same,pIC50,[2],7.52
same,solubility,[6],17 µg/mL
Cn1nc(-c2cccc(S(N)(=O)=O)c2)s/c1=N\C1CCCCC1,pIC50,[1],4.82
Cn1nc(-c2ccc(Cl)c(S(N)(=O)=O)c2)s/c1=N\C1CCCCC1,pIC50,[1],5.23
same,pIC50,[2],7.22
Cn1nc(-c2cccc(O)c2)s/c1=N\C1CCCCC1,pIC50,[1],4.65
Cn1nc(-c2ccc(Cl)cc2)s/c1=N\c1cccc(-c2nn[nH]n2)c1,pIC50,[3],5.15
same,pIC50,[4],5.77
same,pIC50,[1],5.37
same,pIC50,[2],7.10
same,IC50,[5],3.34 µM
Cn1nc(-c2cccc(Cl)c2)s/c1=N\C1CCCCC1,pIC50,[1],< 4.00
COc1c(O)cc(-c2nn(C)/c(=N/C3CCCCC3)s2)cc1O,pIC50,[1],4.93
same,pIC50,[2],7.22
Cn1nc(-c2ccc(C(=O)O)cc2)s/c1=N\C1CCCCC1,pIC50,[1],4.49
